# pEC50: −log10 of the molar value.
# Target: T1, STING (Stimulator of Interferon Genes) (Homo sapiens, UniProt Q86WV6, G230A/H232R/R293Q/R71H)
# T1 construct: host or cells: THP-1-Lucia ISG cells (human monocytic line)
# Assay: ISG-LUC activation assay (ISRE-Luciferase assay in THP-1 Lucia ISG reporter cells)
# Assay type: cell-based
# Conditions: THP-1 Lucia ISG cells, 24 hours, luciferase reporter; read-out: ISG-LUC activation assay (EC50)
# Text: This has been established using a primary assay involving a human THP-1 cell line carrying an IRF-inducible reporter with 5 copies of the IFN signaling response element. Counter screens, involving alternative reporter constructs, rodent cell-based assays, as well as cGAS and STING knock-out cell lines, are used to eliminate luciferase artifacts and ensure human-rodent cross species reactivity, as well as pathway selectivity. Biochemical assays, involving cGAS enzymatic activity and STING protein binding assays, are used to identify the specific target of identified hits.
# THP-1 Lucia ISG cells were resuspended in low-serum growth media (2% FBS) at a density of 5×10^5 cells/ml and treated with test article or vehicle (DMSO). 50 μL of cells were seeded into each well of a 384-well white greiner plates and incubated for 24 hours. To evaluate expression of the luciferase reporter, 30 μl of Quanti-luc (Invivogen) detection reagent was added to each well and luminescence was read using an Envision plate reader (Perkin Elmer) set with an integration time of 0.1 seconds.
# T1 sequence (Q86WV6 whole entry R71H/G230A/H232R/R293Q): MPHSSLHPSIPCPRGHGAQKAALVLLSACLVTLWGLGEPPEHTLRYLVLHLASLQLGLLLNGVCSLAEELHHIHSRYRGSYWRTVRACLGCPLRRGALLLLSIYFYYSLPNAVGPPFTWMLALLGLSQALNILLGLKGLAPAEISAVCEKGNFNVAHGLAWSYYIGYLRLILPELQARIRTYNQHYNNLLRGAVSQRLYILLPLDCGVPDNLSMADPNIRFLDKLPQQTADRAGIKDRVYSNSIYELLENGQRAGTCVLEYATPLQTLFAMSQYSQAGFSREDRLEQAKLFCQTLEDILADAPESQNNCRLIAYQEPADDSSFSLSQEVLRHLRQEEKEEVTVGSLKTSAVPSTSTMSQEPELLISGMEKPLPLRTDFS
row,Structure (SMILES),pEC50
1,Cc1ccc(C(=O)OC(C)C)c(NC(=O)c2ccc(-n3ccnc3)nn2)c1 [Compound 66],6.29
2,CCOC(=O)C1=C(NC(=O)c2ccc(-n3ccnc3)nn2)CCC(C)C1 (stereo not drawn) [Compound 67],5.53
3,CCN(CC)CCOC(=O)c1cc(F)c(F)cc1NC(=O)c1ccc(-n2ccnc2)nn1 [Compound 68],5.74
4,COC(=O)c1ncc(F)cc1NC(=O)c1ccc(-n2ccnc2)nn1 [Compound 69],5.56
5,COC(=O)c1cc(C(F)(F)F)c(F)cc1NC(=O)c1ccc(-n2ccnc2)nn1 [Compound 70],5.76
6,COC(=O)c1nc(OC)ncc1NC(=O)c1ccc(-n2ccnc2)nn1 [Compound 71],5.78
7,COC(=O)c1c(F)cccc1NC(=O)c1ccc(-n2ccnc2)nn1 [Compound 72],5.78
8,COC(=O)c1cc(C#N)cc(F)c1NC(=O)c1ccc(-n2ccnc2)nn1 [Compound 73],5.63
9,COC(=O)c1nc(OC)ccc1NC(=O)c1ccc(-n2ccnc2)nn1 [Compound 74],5.87
10,COCC(=O)c1nc(Cl)ncc1NC(=O)c1ccc(-n2ccnc2)nn1 [Compound 75],5.90
11,COC(=O)c1cc(OC(F)(F)F)ccc1NC(=O)c1ccc(-n2ccnc2)nn1 [Compound 76],6.24
12,COC(=O)C1=C(NC(=O)c2ccc(-n3ccnc3)nn2)CC(C)(C)C1 [Compound 77],< 4.30
13,O=C(Nc1cc2ccccc2cc1C(=O)O)c1ccc(-n2ccnc2)nn1 [Compound 78],5.35
14,CCc1ccc(NC(=O)c2ccc(-n3ccnc3)nn2)c(C(=O)O)c1 [Compound 79],< 4.70
15,O=C(Nc1cc(F)c(C(F)(F)F)cc1C(=O)O)c1ccc(-n2ccnc2)nn1 [Compound 80],5.40
16,Cc1cc(NC(=O)c2ccc(-n3ccnc3)nn2)c(C(=O)O)cc1F [Compound 81],5.56
17,Cc1ccc(C(=O)O)c(NC(=O)c2ccc(-n3ccnc3)nn2)c1 [Compound 82],5.19
18,O=C(Nc1ccc(Cl)cc1C(=O)O)c1ccc(-n2ccnc2)nn1 [Compound 83],< 4.70
19,O=C(Nc1cc(F)c(OC(F)F)cc1C(=O)O)c1ccc(-n2ccnc2)nn1 [Compound 84],5.07
20,O=C(Nc1ccc(C2CC2)cc1C(=O)O)c1ccc(-n2ccnc2)nn1 [Compound 85],~4.78
21,O=C(Nc1cc(C(F)(F)F)ccc1C(=O)O)c1ccc(-n2ccnc2)nn1 [Compound 86],4.99

row,Structure (SMILES),pEC50
1,O=C(Nc1cc(F)c(F)cc1C(=O)NC1CCC(O)(C(F)(F)F)CC1)c1ccc(-n2ccnc2)nn1 (stereo not drawn) [Compound 87],< 4.70
2,O=C(Nc1cc(F)c(F)cc1C(=O)NC1CCC(O)(C(F)(F)F)CC1)c1ccc(-n2ccnc2)nn1 (stereo not drawn) [Compound 88],5.28
3,Cc1ccc(NC(=O)c2ccc(-n3ccnc3)nn2)c(C(=O)O)c1 [Compound 89],< 4.70
4,O=C(Nc1ccc(C(F)(F)F)cc1C(=O)O)c1ccc(-n2ccnc2)nn1 [Compound 90],< 4.70
5,COC(=O)c1cccc(C)c1NC(=O)c1ccc(-n2ccnc2)nn1 [Compound 91],~5.29
6,COC(=O)c1ccccc1NC(=O)c1ccc(-n2cnc(C#N)c2)nn1 [Compound 92],~5.28
7,COC(=O)c1ccccc1NC(=O)c1ccc(-n2cnc(C)c2)nn1 [Compound 93],< 4.70
8,CC(C)OC(=O)c1ccccc1NC(=O)c1ccc(-n2ccnc2)nn1 [Compound 95],5.77
9,COC(=O)c1cccc(Cl)c1NC(=O)c1ccc(-n2ccnc2)nn1 [Compound 96],4.68
10,COC(=O)c1cc(Cl)cc(C)c1NC(=O)c1ccc(-n2ccnc2)nn1 [Compound 97],~5.60
11,COC(=O)c1cc2c(cc1NC(=O)c1ccc(-n3ccnc3)nn1)OCO2 [Compound 98],5.57
12,COC(=O)c1c(F)ccc(Cl)c1NC(=O)c1ccc(-n2ccnc2)nn1 [Compound 99],4.92
13,COC(=O)c1c(Cl)cc(F)cc1NC(=O)c1ccc(-n2ccnc2)nn1 [Compound 100],4.99
14,Cc1cc(C(=O)O)c(NC(=O)c2ccc(-n3ccnc3)nn2)cc1C(F)(F)F [Compound 102],4.92
15,O=C(Nc1cc(Cl)c(Cl)cc1C(=O)O)c1ccc(-n2ccnc2)nn1 [Compound 103],6.35
16,COC(=O)c1cc(C)ccc1NC(=O)c1ccc(-n2ccnc2)nn1 [Compound 104],6.37
17,COC(=O)c1ccc(OC)cc1NC(=O)c1ccc(-n2ccnc2)nn1 [Compound 105],6.72
18,COC(=O)c1cc(Cl)ccc1NC(=O)c1ccc(-n2ccnc2)nn1 [Compound 106],6.46
19,COC(=O)c1cc(F)c(F)cc1NC(=O)c1ccc(-n2ccnc2)nn1 [Compound 107],6.38
20,COC(=O)c1cnccc1NC(=O)c1ccc(-n2ccnc2)nn1 [Compound 108],5.48
21,COC(=O)c1cc(O)ccc1NC(=O)c1ccc(-n2ccnc2)nn1 [Compound 109],5.05

row,Structure (SMILES),pEC50
1,CCOC(=O)c1cc[nH]c1NC(=O)c1ccc(-n2ccnc2)nn1 [Compound 110],4.77
2,Cc1cc(NC(=O)c2ccc(-n3ccnc3)nn2)c(C(=O)O)cc1C [Compound 111],5.14
3,CCOC(=O)C1=C(NC(=O)c2ccc(-n3ccnc3)nn2)CCCC1 [Compound 112],5.82
4,CCOC(=O)C1=C(NC(=O)c2ccc(-n3ccnc3)nn2)CCC1 [Compound 113],4.73
5,COC(=O)c1cc2c(cc1NC(=O)c1ccc(-n3ccnc3)nn1)CCCC2 [Compound 114],5.36
6,Cc1ccc(NC(=O)c2ccc(-n3ccnc3)nn2)c(C(O)(C(F)(F)F)C(F)(F)F)c1 [Compound 115],5.13
7,CCOC(=O)c1cc2c(nc1NC(=O)c1ccc(-n3ccnc3)nn1)CCN(C)C2 [Compound 116],5.46
8,COC(=O)c1cc2[nH]ncc2cc1NC(=O)c1ccc(-n2ccnc2)nn1 [Compound 117],~5.59
9,O=C(Nc1ccccc1-c1noc(O)n1)c1ccc(-n2ccnc2)nn1 [Compound 118],5.40
10,COC(=O)c1nn(C)cc1NC(=O)c1ccc(-n2ccnc2)nn1 [Compound 119],5.23
11,CCOC(=O)C1=C(NC(=O)c2ccc(-n3ccnc3)nn2)CCCCC1 [Compound 120],< 4.30
12,O=C(Nc1ccc2ccccc2c1C(O)(C(F)(F)F)C(F)(F)F)c1ccc(-n2ccnc2)nn1 [Compound 121],5.74
13,O=C(Nc1cc(F)c(F)cc1C(=O)NCCO)c1ccc(-n2ccnc2)nn1 [Compound 122],5.10
14,COC(=O)c1n[nH]cc1NC(=O)c1ccc(-n2ccnc2)nn1 [Compound 123],5.52
15,N=C(N)NCCC[C@H](NC(=O)c1cc(F)c(F)cc1NC(=O)c1ccc(-n2ccnc2)nn1)C(N)=O [Compound 124],5.09
16,Cc1cc(NC(=O)c2ccc(-n3ccnc3)nn2)c(C(N)=O)cc1C [Compound 125],5.02
17,O=c1[nH]c(-c2ccc(-n3ccnc3)nn2)nc2cc(F)c(F)cc12 [Compound 126],5.95
18,COC(=O)C1=C(NC(=O)c2ccc(-n3ccnc3)nn2)CC(C)(C)CC1 [Compound 127],5.14
19,CCOC(=O)C1=C(NC(=O)c2ccc(-n3ccnc3)nn2)CCOC1 [Compound 128],5.36
20,CCOC(=O)C1=C(NC(=O)c2ccc(-n3ccnc3)nn2)COCC1 [Compound 129],4.97
21,O=C(O)C1=C(NC(=O)c2ccc(-n3ccnc3)nn2)CCCC1 [Compound 130],4.83

row,Structure (SMILES),pEC50
1,CCOC(=O)C1=C(NC(=O)c2ccc(-n3ccnc3)nn2)CCC(F)(F)C1 [Compound 131],5.46
2,O=c1oc(-c2ccc(-n3ccnc3)nn2)nc2ccc(F)c(F)c12 [Compound 132],5.37
3,Cc1c(F)ccc2nc(-c3ccc(-n4ccnc4)nn3)oc(=O)c12 [Compound 133],5.38
4,Cc1cc(C(N)=O)c(NC(=O)c2ccc(-n3ccnc3)nn2)cc1F [Compound 134],< 4.30
5,CCOC(=O)C1=C(NC(=O)c2ccc(-n3ccnc3)nn2)C[C@@H](C)O[C@H]1C [Compound 135],4.91
6,COC(=O)C1=C(NC(=O)c2ccc(-n3ccnc3)nn2)CC(C)(C)OC1 [Compound 136],5.05
7,Cc1ccc2nc(-c3ccc(-n4ccnc4)nn3)oc(=O)c2n1 [Compound 137],5.03
8,NC(=O)c1cc(Cl)c(Cl)cc1NC(=O)c1ccc(-n2ccnc2)nn1 [Compound 138],< 4.30
9,O=c1oc(-c2ccc(-n3ccnc3)nn2)nc2cc3c(cc12)OCCO3 [Compound 139],5.60
10,O=c1oc(-c2ccc(-n3ccnc3)nn2)nc2ccc(C(F)(F)F)nc12 [Compound 140],~4.60
11,O=c1oc(-c2ccc(-n3ccnc3)nn2)nc2cc3c(cc12)OC(F)(F)O3 [Compound 141],< 4.30
12,COC(=O)c1cc(O)c(F)cc1NC(=O)c1ccc(-n2ccnc2)nn1 [Compound 142],< 4.30
13,CCOC(=O)c1c(F)ccc(F)c1NC(=O)c1ccc(-n2ccnc2)nn1 [Compound 143],5.01
14,Nc1cc(F)c(F)cc1NC(=O)c1ccc(-n2ccnc2)nn1 [Compound 144],< 4.30
15,COC(=O)c1nc(C2CC2)c(F)cc1NC(=O)c1ccc(-n2ccnc2)nn1 [Compound 145],5.80
16,O=C(Nc1cc(F)c(OC(F)(F)F)cc1C(=O)O)c1ccc(-n2ccnc2)nn1 [Compound 146],5.66
17,CN(O)C(=O)c1cc(F)c(F)cc1NC(=O)c1ccc(-n2ccnc2)nn1 [Compound 147],5.28
18,CCOC(=O)c1c(F)cc(F)c(F)c1NC(=O)c1ccc(-n2ccnc2)nn1 [Compound 148],5.43

# Source: patent publication US11701364B2, “Agonists of stimulator of interferon genes sting” (The Scripps Research Institute, priority 2018, dated 2023)
